Assay results taken from patent EP0286418A1, “Anti-retroviral agents and delivery systems for the same” (priority 1987, dated 1988).
“And” between values parts separate entries of the source, which are not always exact repeats. Equal entries are not always repeated. One block for each molecule: values may come before it.

Assays:
[1] = test system: monocytes; assay: superoxide generation by monocytes; assay type: cell-based, Human; conditions: PMA treatment (positive control), one value per test series
Method: Human peripheral blood mononuclear cells were obtained by standard procedures employing continuous flow cell separation (leukapheresis), such as described in Wahl, et al., Cellular Immunol. 85:373-383 (1984). The preparation was diluted in phosphate-buffered saline and layered onto gradients of Ficoll-Paque (Pharmacia-PL Biochemicals, Piscataway, N.J., USA). After centrifugation, mononuclear cells were pipetted from the interface, washed, and suspended in DMEM-GG-FCS. They were then fractionated by countercurrent centrifugal elutriation. The procedure comprises the Beckman elutriation system including a J-21 Beckman Centrifuge, a JE-6 elutriator rotor, a stroboscope, and a Masterflex pump and pumphead. The cells were loaded into the rotor and fractionated by elution at increasing flow rates. Fractions 7 and 8, highly enriched for monocytes, were pooled for use.

[2] = test system: adherent human monocytes; assay: uptake of dideoxynucleotides; assay type: cell-based; conditions: 37°C, drug 1 uM
Method: Uptake of ₃H-deoxyctidine triphosphate (³H-dCTP) was used as an indicator of the uptake of vesicle contents by cells. Uptake experiments were done by plating 5 × 10⁶ monocytes in each well of a 6-well microtiter plate (Costar) and adding reagents one or two days later. Incubations were done in DMEM-GG-FCS at 37°C. The rate of increase of dCTP content in the cells over a 9-hour period (Table 7) averaged 0.29 pmole/million cells/hr with liposomes containing 4 mM EPC. Other experiments established that ddCTP and ddCMP are not readily taken up by the cells (Table 9).

[3] = in vitro; assay type: in vitro ADME; conditions: dmem-gg-fcs
Method: When the same incubations were done in the absence of monocytes, the results were essentially identical.
Studies were conducted under conditions mimicking those of anti-viral tests. ddCMP: dideoxycytidine monophosphate. Data points represent integrals under HPLC peaks from gradient elution on a VYDAC nucleotide column.

[4] = volume of encapsulation in liposomes; assay type: physicochemical; conditions: freeze-thawed multilamellar EPC/PS/cholesterol liposomes; 8 mM solute
Method: 2ʹ,3ʹ-dideoxyguanosine 5ʹ-triphosphate (ddGTP), 2ʹ,3ʹ-dideoxyadenosine 5ʹ-triphosphate (ddATP), 2ʹ,3ʹ-dideoxythymidine 5ʹ-triphosphate (ddTTP), 2ʹ,3ʹ-dideoxycytidine 5ʹ-diphosphate (ddCDP), and 2ʹ,3ʹ-dideoxy cytidine 5ʹ-monophosphate (ddCMP) were obtained from Pharmacia (Piscataway, N.J., USA). Liposomes containing each of these agents were prepared using 56 mg EPC, 29 mg PS, 33 mg cholesterol, and 0.125 micro Ci ¹⁴C-cholesteryl oleate. Solutions for encapsulation were 8 mM nucleoside or nucleotide in phosphate-buffered saline pH 7. Liposomes were prepared essentially as described in Example 2, by drying lipid onto the walls of a glass vial, hydrating the lipid with a portion of the solution to be encapsulated, vortex-mixing, and freeze-thawing 5 times with liquid nitrogen. However, the lipid was hydrated in 0.8 ml, rather than 1.0 ml, and the extrusion step was eliminated. […] The preparation was washed by centrifugation 3 times to remove unencapsulated solute. The volume encapsulated was determined by extraction, using equal volumes of chloroform:methanol (65:25) and phosphate buffered saline. The nucleoside and nucleotide solutes partitioned largely into the aqueous phase, whereas lipid was found in the organic phase and near the interface after centrifugation. The amount of solute encapsulated was determined by standard ultraviolet spectroscopy, and the lipid was measured by counting the ¹⁴C label in scintillation fluid.

[5] = solute release from liposomes at 4°C; assay type: physicochemical; conditions: from liposomes at 4°C in 2 days
Method: Rates of solute release were determined by adding 145 microliters of phosphate buffered saline to 25 microliters of liposomes and centrifuging in an Airfuge (Beckman) at approximately 100,000G for 10 minutes. The liposome pellets were then counted for ¹⁴C lipid, and 100 microliters of each supernatant was diluted 5-fold with phosphate buffered saline for ultraviolet spectroscopy. […] In each case, the triphosphates are released less, and the less phosphorylated forms are released to a greater extent.

SMILES: CCCCCCCCCCCCCC(=O)O[C@@H]1[C@@H](C)[C@@]2(O)[C@@H](C=C(CO)C[C@]3(O)C(=O)C(C)=C[C@@H]23)[C@@H]2C(C)(C)[C@]12OC(C)=O [PMA, phorbol myristyl acetate, reference compound]
Superoxide [1]: 3.23 (.09) nmoles/well and 3.30 (.12) nmoles/well and 3.26 (.05) nmoles/well and 3.46 (.12) nmoles/well

SMILES: Cc1cn([C@H]2CC[C@@H](COP(=O)(O)OP(=O)(O)OP(=O)(O)O)O2)c(=O)[nH]c1=O [ddTTP, 2ʹ,3ʹ-dideoxythymidine 5ʹ-triphosphate]
Volume of Encapsulation [4]: 1.61 microliters/micromole EPC
Percent Release [5]: 0.04%

SMILES: Cc1cn([C@H]2CC[C@@H](CO)O2)c(=O)[nH]c1=O [ddT, dideoxythymidine, reference compound]
Volume of Encapsulation [4]: 1.29 microliters/micromole EPC
Percent Release [5]: 45.1%

SMILES: Nc1ccn([C@H]2CC[C@@H](CO)O2)c(=O)n1 [ddC, dideoxycytidine, reference compound]
pmole drug/1 million cells (mean) ([2]; 0. h): 0.05 pmole drug/1 million cells
pmole drug/1 million cells (mean) ([2]; 0.33 h): 0.01 pmole drug/1 million cells
pmole drug/1 million cells (mean) ([2]; 1.00 h): 0.19 pmole drug/1 million cells
pmole drug/1 million cells (mean) ([2]; 3.00 h): 0.43 pmole drug/1 million cells
pmole drug/1 million cells (mean) ([2]; 6.00 h): 1.30 pmole drug/1 million cells
pmole drug/1 million cells (mean) ([2]; 9.00 h): 1.90 pmole drug/1 million cells
pmole drug/1 million cells (mean) ([2]; 20.00 h): 0.81 pmole drug/1 million cells

The next lines start with the values.

pmole drug/1 million cells (mean) ([2]; 0. h): 0.07 pmole drug/1 million cells
pmole drug/1 million cells (mean) ([2]; 0.33 h): 0.18 pmole drug/1 million cells
pmole drug/1 million cells (mean) ([2]; 1.00 h): 0.22 pmole drug/1 million cells
pmole drug/1 million cells (mean) ([2]; 3.00 h): 0.08 pmole drug/1 million cells
pmole drug/1 million cells (mean) ([2]; 6.00 h): 0.20 pmole drug/1 million cells
metabolised at 72 h [3]: 93%
Volume of Encapsulation [4]: 0.76 microliters/micromole EPC
Percent Release [5]: 6.9%
SMILES: Nc1ccn([C@H]2CC[C@@H](COP(=O)(O)O)O2)c(=O)n1 [ddCMP, 2ʹ,3ʹ-dideoxycytidine 5ʹ-monophosphate]

Volume of Encapsulation [4]: 1.26 microliters/micromole EPC
Percent Release [5]: 6.2%
SMILES: Nc1ccn([C@H]2CC[C@@H](COP(=O)(O)OP(=O)(O)O)O2)c(=O)n1 [ddCDP, 2ʹ,3ʹ-dideoxycytidine 5ʹ-diphosphate]

Volume of Encapsulation [4]: 1.30 microliters/micromole EPC
Percent Release [5]: 0.9%
SMILES: Nc1ncnc2c1ncn2[C@H]1CC[C@@H](COP(=O)(O)OP(=O)(O)OP(=O)(O)O)O1 [ddATP, 2ʹ,3ʹ-dideoxyadenosine 5ʹ-triphosphate]

Volume of Encapsulation [4]: 2.74 microliters/micromole EPC
Percent Release [5]: 0.3%
SMILES: Nc1nc2c(ncn2[C@H]2CC[C@@H](COP(=O)(O)OP(=O)(O)OP(=O)(O)O)O2)c(=O)[nH]1 [ddGTP, 2ʹ,3ʹ-dideoxyguanosine 5ʹ-triphosphate]
